Experimental data as given in patent publication US10294202B2, “Pyrrolidinones as herbicides” (FMC Corporation, priority 2013, dated 2019).

How the values were obtained:
rice = test: Test C flooded paddy test; assay type: in vivo, Oryza sativa; conditions: Flood
How it was run: (§1)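 2-leaf stage; flood 3 cm over soil; compound into paddy water; depth held; greenhouse 13–15 d; visual % control vs untreated (0 = none, 100 = complete); "-" = not tested.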

velvetleaf = test: Test A pre-/postemergence herbicide test; assay type: in vivo, Abutilon theophrasti; conditions: for Velvetleaf plant response rating: visual rating on 0 to 100 scale (0 no effect, 100 complete control)
How it was run: (§2)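 Planted in loam–sand blend; treated the same day preemergence by directed soil spray, while separately grown plants at one- to two-leaf stage got postemergence spray. Compared visually with untreated controls after approximately 10 days; 100 means complete control.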

ducksalad = test: Test C flooded paddy test; assay type: in vivo, Heteranthera limosa; conditions: Flood
How it was run: as §1

sedge, umbrella = test: Test C flooded paddy test; assay type: in vivo, Cyperus difformis; conditions: Flood
How it was run: as §1

barnyardgrass = test: Test C flooded paddy test; assay type: in vivo, Echinochloa crus-galli; conditions: Flood
How it was run: as §1

ryegrass, Italian = test: Test A pre-/postemergence herbicide test; assay type: in vivo, Lolium multiflorum
How it was run: as §2

galium = test: Test A postemergence herbicide test; assay type: in vivo, Galium aparine
How it was run: (§3)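 Injury was rated visually about 10 days after treatment on a 0 (no effect) to 100 (complete control) scale, compared with untreated plants. Test chemicals were sprayed postemergence onto greenhouse plants 2–10 cm high at one to two leaves, grown in a loam–sand blend.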

kochia = test: Test A pre-/postemergence herbicide test; assay type: in vivo, Kochia scoparia
How it was run: as §2

ragweed = test: Test A pre-/postemergence herbicide test; assay type: in vivo, Ambrosia elatior
How it was run: as §2

blackgrass = test: Test A postemergence herbicide test; assay type: in vivo, Alopecurus myosuroides
How it was run: as §3

[1] = 31 g ai/ha, scale of 0 to 100 where 0 is no effect and 100 is complete control, 13 to 15 days
[2] = 62 g ai/ha, scale of 0 to 100 where 0 is no effect and 100 is complete control, 13 to 15 days
[3] = 125 g ai/ha, scale of 0 to 100 where 0 is no effect and 100 is complete control, 13 to 15 days
[4] = Postemergence, 500 g ai/ha, 0 to 100 scale (0 no effect, 100 complete control)
[5] = preemergence, 500 g ai/ha, 0 to 100 scale
[6] = Postemergence, 125 g ai/ha, 0 to 100 scale, 0 no effect, 100 complete control
[7] = Postemergence, 125 g ai/ha, 0 to 100 scale, 0 is no effect, 100 is complete control
[8] = Preemergence, 125 g ai/ha, 0 to 100 scale where 0 is no effect and 100 is complete control
[9] = preemergence, 500 g ai/ha, 0 to 100 scale, 0 is no effect and 100 is complete control
[10] = 125 g ai/ha, visual rating, 0 to 100 scale, 0 no effect, 100 complete control, approximately 10 days, preemergence
[11] = 125 g ai/ha, 0 to 100 scale, 0 is no effect, 100 is complete control
[12] = Postemergence, 125 g ai/ha, visual rating on 0 to 100 scale (0 no effect, 100 complete control), approx. 10 days
[13] = Postemergence, 1000 g ai/ha, 0 to 100 scale (0 no effect, 100 complete control)
[14] = preemergence, 1000 g ai/ha, 0 to 100 scale
[15] = 1000 g ai/ha, 0 to 100 scale (0 no effect, 100 complete control)
[16] = Preemergence, 500 g ai/ha, visual rating on 0 to 100 scale (0 no effect, 100 complete control)
[17] = 125 g ai/ha, visual rating on 0 to 100 scale (0 no effect, 100 complete control), approx. 10 days
[18] = 500 g ai/ha, 0 to 100 scale (0 no effect, 100 complete control)

SMILES	Plant response rating, Velvetleaf (velvetleaf; [4])	Plant response rating, Ryegrass, Italian (ryegrass, Italian; [12])	Plant response rating, Ragweed (ragweed; [12])	Plant response rating, Ryegrass, Italian (ryegrass, Italian; [4])	Plant response rating, Ryegrass, Italian (ryegrass, Italian; [8])	Ryegrass, Italian plant response rating (ryegrass, Italian; [16])	Plant response rating, Galium (galium; [17])	Plant response rating, Galium (galium; [18])	Plant response rating, Kochia (kochia; [12])	Plant response rating, Kochia (kochia; [4])	Kochia plant response rating (kochia; [16])	Plant response rating, Ragweed (ragweed; [4])	Plant response rating, Ragweed (ragweed; [8])	Plant response rating, Blackgrass (blackgrass; [17])	Plant response rating, Blackgrass (blackgrass; [18])	Plant response rating, Kochia (kochia; [8])	Ragweed plant response rating (ragweed; [16])	also measured
O=C1NCC(c2cccc(C(F)(F)F)c2)C1C(=O)Nc1ccccc1F (racemic) [Compound 3]	0																	Plant response rating, Rice (rice; [1]): 0; Plant response rating, Rice (rice; [2]): 0; Plant response rating, Rice (rice; [3]): 0; Plant response rating, Rice (rice; 250 g ai/ha, scale 0 to 100): 0; Velvetleaf plant response rating (velvetleaf; Preemergence, 125 g ai/ha): 0; Plant response rating, Velvetleaf (velvetleaf; [5]): 0; Plant response rating, Ducksalad (ducksalad; [1]): 40; Plant response rating, Ducksalad (ducksalad; [2]): 60; Plant response rating, Ducksalad (ducksalad; [3]): 85; Plant response rating, Ducksalad (ducksalad; 250 g ai/ha, scale 0 to 100): 90; Plant response rating, Sedge, Umbrella (sedge, umbrella; [1]): 0; Plant response rating, Sedge, Umbrella (sedge, umbrella; [2]): 0; Plant response rating, Sedge, Umbrella (sedge, umbrella; [3]): 0; Plant response rating, Sedge, Umbrella (sedge, umbrella; 250 g ai/ha, scale 0 to 100): 50; Plant response rating, Barnyardgrass (barnyardgrass; [1]): 0; Plant response rating, Barnyardgrass (barnyardgrass; [2]): 20; Plant response rating, Barnyardgrass (barnyardgrass; [3]): 40; Plant response rating, Barnyardgrass (barnyardgrass; 250 g ai/ha, scale 0 to 100): 55
O=C1NCC(c2ccc(F)c(F)c2)C1C(=O)Nc1cccc(F)c1 (racemic) [Compound 12]	20																	Plant response rating, Rice (rice; [1]): 0; Plant response rating, Rice (rice; [2]): 0; Plant response rating, Rice (rice; [3]): 0; Plant response rating, Rice (rice; 250 g ai/ha, scale 0 to 100): 0; Plant response rating, Velvetleaf (velvetleaf; [6]): 0; Velvetleaf plant response rating (velvetleaf; Preemergence, 125 g ai/ha): 0; Plant response rating, Velvetleaf (velvetleaf; [5]): 0; Plant response rating, Ducksalad (ducksalad; [1]): 0; Plant response rating, Ducksalad (ducksalad; [2]): 0; Plant response rating, Ducksalad (ducksalad; [3]): 0; Plant response rating, Ducksalad (ducksalad; 250 g ai/ha, scale 0 to 100): 0; Plant response rating, Sedge, Umbrella (sedge, umbrella; [1]): 0; Plant response rating, Sedge, Umbrella (sedge, umbrella; [2]): 0; Plant response rating, Sedge, Umbrella (sedge, umbrella; [3]): 0; Plant response rating, Sedge, Umbrella (sedge, umbrella; 250 g ai/ha, scale 0 to 100): 0; Plant response rating, Barnyardgrass (barnyardgrass; [1]): 0; Plant response rating, Barnyardgrass (barnyardgrass; [2]): 0; Plant response rating, Barnyardgrass (barnyardgrass; [3]): 0; Plant response rating, Barnyardgrass (barnyardgrass; 250 g ai/ha, scale 0 to 100): 65
O=C1NCC(c2ccc(F)c(C(F)(F)F)c2)C1C(=O)Nc1ccccc1C(F)(F)F (racemic) [Compound 78]	60																	Plant response rating, Velvetleaf (velvetleaf; [6]): 20; Velvetleaf plant response rating (velvetleaf; Preemergence, 125 g ai/ha): 0; Plant response rating, Velvetleaf (velvetleaf; [5]): 30
O=C1NCC(c2ccc(C(F)(F)F)c(F)c2)C1C(=O)Nc1ccccc1F (racemic) [Compound 246]	0																	Plant response rating, Velvetleaf (velvetleaf; [7]): 0; Plant response rating, Velvetleaf (velvetleaf; [8]): 0; Plant response rating, Velvetleaf (velvetleaf; [9]): 0
O=C1NCC(c2ccc(C(F)(F)F)nc2)C1C(=O)Nc1ccccc1F (racemic) [Compound 262]																		Plant response rating, Velvetleaf (velvetleaf; [8]): 0; Plant response rating, Velvetleaf (velvetleaf; [9]): 0
O=C1NCC(c2ccc(C(F)(F)F)cc2)C1C(=O)Nc1ccccc1Cl (stereo not shown) [Compound 233]																		Plant response rating, Ryegrass, Italian (ryegrass, Italian; [10]): 30; Plant response rating, Ryegrass, Italian (ryegrass, Italian; [7]): 20; Ryegrass, Italian plant response rating (0 to 100 scale, 0 is no effect, 100 is complete control) (ryegrass, Italian; Postemergence, 500 g ai/ha): 40; Plant response rating, Ryegrass, Italian (ryegrass, Italian; [9]): 60; Plant response rating, Galium (galium; [11]): 20; Galium plant response rating (0 to 100 scale, 0 is no effect, 100 is complete control) (galium; 500 g ai/ha): 50; Plant response rating, Kochia (kochia; [10]): 50; Plant response rating, Kochia (kochia; [7]): 60; Kochia plant response rating (0 to 100 scale, 0 is no effect, 100 is complete control) (kochia; Postemergence, 500 g ai/ha): 80; Plant response rating, Kochia (kochia; [9]): 80; Plant response rating, Ragweed (ragweed; [10]): 40; Plant response rating, Ragweed (ragweed; [7]): 30; Ragweed plant response rating (0 to 100 scale, 0 is no effect, 100 is complete control) (ragweed; Postemergence, 500 g ai/ha): 50; Plant response rating, Ragweed (ragweed; [9]): 50; Plant response rating, Blackgrass (blackgrass; [11]): 60; Blackgrass plant response rating (0 to 100 scale, 0 is no effect, 100 is complete control) (blackgrass; 500 g ai/ha): 60
O=C1NCC(c2cccc(C(F)(F)F)c2)C1C(=O)Nc1cccc(F)c1F (stereo not shown) [Compound 241]	20																	Plant response rating, Velvetleaf (velvetleaf; [7]): 0; Plant response rating, Velvetleaf (velvetleaf; [8]): 0; Plant response rating, Velvetleaf (velvetleaf; [9]): 0
O=C(Nc1ccccc1F)C1C(=S)NCC1c1cccc(C(F)(F)F)c1 (stereo not shown) [Compound 274]		0	0															Plant response rating, Ryegrass, Italian (ryegrass, Italian; [13]): 20; Plant response rating, Ryegrass, Italian (ryegrass, Italian; [14]): 40; Plant response rating, Galium (galium; [15]): 0; Plant response rating, Kochia (kochia; [13]): 40; Plant response rating, Kochia (kochia; [14]): 40; Plant response rating, Ragweed (ragweed; [13]): 30; Plant response rating, Ragweed (ragweed; [14]): 20; Plant response rating, Blackgrass (blackgrass; [15]): 50
CN1CC(c2ccc(C(F)(F)F)cc2)C(C(=O)Nc2ccccc2F)C1=O (stereo not shown) [Compound 304]		50	0	50	0	0	20	60	10	80	70	20	0	50	70			
O=C1NCC(c2cccc(Br)c2)C1C(=O)Nc1ccccc1F (stereo not shown) [Compound 307]		0	0	0	0	0	0	0	0	0	0	0	0	30	70	0	0	
O=C1NCC(c2cccc(C(F)(F)F)c2)C1C(=O)Nc1ccc(F)c(F)c1F (stereo not shown) [Compound 315]		20	20	50	40	70	40	50	50	70	60	40	20	40	50	40	30	
O=C1NCC(c2cccc(C(F)(F)F)c2)C1C(=O)Nc1cccc(Cl)c1F (stereo not shown) [Compound 316]		20	20	30	20	50	20	40	30	40	30	30	20	30	40	0	30	
O=C1NCC(c2cccc(OC(F)F)c2)C1C(=O)Nc1ccc(F)c(F)c1F (stereo not shown) [Compound 325]		30	20	50	30	50	50	60	60	80	80	60	30	50	50	70	50	
